Reference: US7855292B2, “Sulfonamide compounds” (Janssen Pharmaceutica NV, priority 2004, dated 2010)

How the values were obtained:
CCK-1 receptor = biological target: T1, CCK-1 receptor (Homo sapiens, UniProt P32238); assay: CCK1 binding assay ([125I]-BH-CCK-8S displacement, CHO-K1 membranes); conditions: membranes of CHO-K1 cells stably transfected with the CCK-1 receptor; 20 pM [125I]-BH-CCK-8S; 0.3 μM PD-134,308 present; 60 min at 21±3° C.; read-out: CCK1 pKi (converted)
T1 construct: expressed in transfected cells; host or cells: CHO-K1
T1 sequence (P32238 1-428): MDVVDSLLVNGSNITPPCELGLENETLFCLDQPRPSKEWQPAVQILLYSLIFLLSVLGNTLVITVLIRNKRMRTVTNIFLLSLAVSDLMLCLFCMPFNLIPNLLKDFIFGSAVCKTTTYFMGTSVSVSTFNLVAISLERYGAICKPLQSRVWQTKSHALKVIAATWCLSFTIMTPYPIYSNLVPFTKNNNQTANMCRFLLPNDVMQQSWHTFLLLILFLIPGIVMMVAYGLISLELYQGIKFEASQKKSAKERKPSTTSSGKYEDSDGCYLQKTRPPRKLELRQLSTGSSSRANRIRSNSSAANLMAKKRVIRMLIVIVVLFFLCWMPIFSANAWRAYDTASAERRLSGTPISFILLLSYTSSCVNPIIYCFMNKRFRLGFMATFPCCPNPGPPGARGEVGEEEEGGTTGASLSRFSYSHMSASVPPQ
Outline: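 Membranes from CHO-K1 cells stably expressing CCK-1 incubated 1 h at 21±3° C with 20 pM [125I]-BH-CCK-8S in HEPES buffer pH 7.2 containing 0.3 μM PD-134,308 to block CCK-2. Bound radioactivity read by gamma counting after filtration. pKi derived via Cheng-Prusoff, with specific binding defined using 2-NAP.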

CCK2 receptor = biological target: T2, CCK2 receptor (Homo sapiens, UniProt P32239); assay: CCK2 binding assay ([125I]-BH-CCK-8S displacement, HEKZFP membranes); conditions: membranes of doxycycline-induced HEKZFP cells; 20 pM [125I]-BH-CCK-8S; 60 min at 21±3° C.; read-out: CCK2 pKi (converted)
T2 construct: analyzed for ZFP expression as well as CCK2R induction upon addition of doxycycline to the culture medium; endogenous in cells
T2 sequence (P32239 1-447): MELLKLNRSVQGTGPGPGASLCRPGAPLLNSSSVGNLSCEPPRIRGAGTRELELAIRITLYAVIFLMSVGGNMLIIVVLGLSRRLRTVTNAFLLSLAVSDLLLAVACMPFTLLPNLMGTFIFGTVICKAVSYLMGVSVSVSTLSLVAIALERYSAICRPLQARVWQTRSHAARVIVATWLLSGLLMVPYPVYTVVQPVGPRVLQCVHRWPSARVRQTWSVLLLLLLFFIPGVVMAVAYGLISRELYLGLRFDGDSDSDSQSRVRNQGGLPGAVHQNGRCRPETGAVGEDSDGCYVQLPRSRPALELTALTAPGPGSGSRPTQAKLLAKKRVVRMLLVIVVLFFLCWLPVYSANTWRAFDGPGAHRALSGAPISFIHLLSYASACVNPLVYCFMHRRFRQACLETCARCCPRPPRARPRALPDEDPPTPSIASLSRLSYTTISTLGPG

| SMILES | Ki (CCK-1 receptor) [nM] | Ki (CCK2 receptor) [nM] |
| --- | --- | --- |
| O=C(N[C@H](Cc1cccc(Br)c1)C(=O)O)c1ccc(I)cc1NS(=O)(=O)c1cccc2nsnc12 [Example 115, (R)-2-[2-(Benzo[1,2,5]thiadiazole-4-sulfonylamino)-4-iodo-benzoylamino]-3-(3-bromo-phenyl)-propionic acid] | 398 | 79.4 |
| COC(=O)[C@@H](NC(=O)c1ccc(I)cc1NS(=O)(=O)c1c(F)cccc1F)[C@H](C)c1ccc(Cl)c(Cl)c1 [Example 116, (2S,3R)-3-(3,4-Dichloro-phenyl)-2-[2-(2,6-difluoro-benzenesulfonylamino)-4-iodo-benzoylamino]-butyric acid methyl ester] | 126 | 2000 |
| O=C(N[C@@H](Cc1ccc(Cl)c(Cl)c1)C(=O)O)c1ccc(Cl)cc1NS(=O)(=O)c1c(F)cccc1F [Example 119, (S)-2-[4-Chloro-2-(2,6-difluoro-benzenesulfonylamino)-benzoylamino]-3-(3,4-dichloro-phenyl)-propionic acid] | 501 | 200 |
| O=C(N[C@H](Cc1ccc(Cl)c(Cl)c1)C(=O)O)c1ccc(Cl)cc1NS(=O)(=O)c1c(F)cccc1F [Example 120, (R)-2-[4-Chloro-2-(2,6-difluoro-benzenesulfonylamino)-benzoylamino]-3-(3,4-dichloro-phenyl)-propionic acid] | 79.4 | 1000 |
| COC(=O)[C@H](Cc1ccc(Cl)c(Br)c1)NC(=O)c1ccc(I)cc1NS(=O)(=O)c1cccc2nsnc12 [Example 122, (S)-2-[2-(Benzo[1,2,5]thiadiazole-4-sulfonylamino)-4-iodo-benzoylamino]-3-(3-bromo-4-chloro-phenyl)-propionic acid methyl ester] | 158 | 398 |
| COC(=O)[C@H](Cc1ccc(F)c(Br)c1)NC(=O)c1ccc(I)cc1NS(=O)(=O)c1cccc2nsnc12 [Example 123, (S)-2-[2-(Benzo[1,2,5]thiadiazole-4-sulfonylamino)-4-iodo-benzoylamino]-3-(3-bromo-4-fluoro-phenyl)-propionic acid methyl ester] | 100 | 158 |
| COC(=O)[C@H](Cc1ccc(F)c(Br)c1)NC(=O)c1ccc(I)cc1NS(=O)(=O)c1cccc2nccnc12 [Example 124, (S)-3-(3-Bromo-4-fluoro-phenyl)-2-[4-iodo-2-(quinoxaline-5-sulfonylamino)-benzoylamino]-propionic acid methyl ester] | 316 | 50.1 |
| COC(=O)[C@H](Cc1ccc(F)c(Br)c1)NC(=O)c1ccc(I)cc1NS(=O)(=O)c1c(F)cccc1F [Example 125, (S)-3-(3-Bromo-4-fluoro-phenyl)-2-[2-(2,6-difluoro-benzenesulfonylamino)-4-iodo-benzoylamino]-propionic acid methyl ester] | 316 | 631 |
| O=C(N[C@@H](Cc1ccc(F)c(Br)c1)C(=O)O)c1ccc(I)cc1NS(=O)(=O)c1cccc2nccnc12 [Example 126, (S)-3-(3-Bromo-4-fluoro-phenyl)-2-[4-iodo-2-(quinoxaline-5-sulfonylamino)-benzoylamino]-propionic acid] | 251 | 5.01 |
| O=C(N[C@@H](Cc1ccc(F)c(Br)c1)C(=O)O)c1ccc(I)cc1NS(=O)(=O)c1c(F)cccc1F [Example 127, (S)-3-(3-Bromo-4-fluoro-phenyl)-2-[2-(2,6-difluoro-benzenesulfonylamino)-4-iodo-benzoylamino]-propionic acid] | 200 | 79.4 |
| O=C(N[C@@H](Cc1ccc(Cl)c(Cl)c1)C(=O)NCc1cccc(Cl)c1)c1ccc(Cl)cc1NS(=O)(=O)c1cccc2nsnc12 [Example 128, (S)-2-(Benzo[1,2,5]thiadiazole-4-sulfonylamino)-4-chloro-N-[1-(3-chloro-benzylcarbamoyl)-2-(3,4-dichloro-phenyl)-ethyl]-benzamide] | 100 | 631 |
| O=C(N[C@@H](Cc1ccc(Cl)c(Cl)c1)C(=O)NCc1ccccc1)c1ccc(Cl)cc1NS(=O)(=O)c1cccc2nsnc12 [Example 129, (S)-2-(Benzo[1,2,5]thiadiazole-4-sulfonylamino)-N-[1-benzylcarbamoyl-2-(3,4-dichloro-phenyl)-ethyl]-4-chloro-benzamide] | 100 | 631 |
| O=C(N[C@@H](Cc1ccc(Cl)c(Cl)c1)C(=O)NCc1ccc(F)cc1)c1ccc(Cl)cc1NS(=O)(=O)c1cccc2nsnc12 [Example 130, (S)-2-(Benzo[1,2,5]thiadiazole-4-sulfonylamino)-4-chloro-N-[2-(3,4-dichloro-phenyl)-(4-fluoro-benzylcarbamoyl)-ethyl]-benzamide] | 398 | 316 |
| O=C(N[C@@H](Cc1ccc(Cl)c(Cl)c1)C(=O)O)c1ccc(Br)cc1NS(=O)(=O)c1cccc2nsnc12 [Example 131, (S)-2-[2-(Benzo[1,2,5]thiadiazole-4-sulfonylamino)-4-bromo-benzoylamino]-3-(3,4-dichloro-phenyl)-propionic acid] | 158 | 15.8 |
| O=C(N[C@@H](Cc1ccc(Cl)c(Cl)c1)C(=O)O)c1ccc(I)cc1NS(=O)(=O)c1cccc2nccnc12 [Example 132, (S)-3-(3,4-Dichloro-phenyl)-2-[4-iodo-2-(quinoxaline-5-sulfonylamino)-benzoylamino]-propionic acid] | 251 | 15.8 |
| O=C(N[C@@H](Cc1ccc(Cl)cc1Cl)C(=O)O)c1ccc(I)cc1NS(=O)(=O)c1cccc2nsnc12 [Example 133, (S)-2-[2-(Benzo[1,2,5]thiadiazole-4-sulfonylamino)-4-iodo-benzoylamino]-3-(2,4-dichloro-phenyl)-propionic acid] | 398 | 31.6 |
| O=C(N[C@@H](Cc1cc(F)c(Cl)cc1Cl)C(=O)O)c1ccc(I)cc1NS(=O)(=O)c1cccc2nsnc12 [Example 134, (S)-2-[2-(Benzo[1,2,5]thiadiazole-4-sulfonylamino)-4-iodo-benzoylamino]-3-(2,4-dichloro-5-fluoro-phenyl)-propionic acid] | 501 | 20 |
| O=C(N[C@@H](Cc1cccc(I)c1)C(=O)O)c1ccc(I)cc1NS(=O)(=O)c1cccc2nsnc12 [Example 135, (S)-2-[2-(Benzo[1,2,5]thiadiazole-4-sulfonylamino)-4-iodo-benzoylamino]-3-(3-iodo-phenyl)-propionic acid] | 501 | 7.94 |
| COC(=O)[C@H](Cc1ccc(Cl)c(I)c1)NC(=O)c1ccc(I)cc1NS(=O)(=O)c1cccc2nsnc12 [Example 136, (S)-2-[2-(Benzo[1,2,5]thiadiazole-4-sulfonylamino)-4-iodo-benzoylamino]-3-(4-chloro-3-iodo-phenyl)-propionic acid methyl ester] | 39.8 | 316 |
| COC(=O)[C@H](Cc1ccc(Cl)c(I)c1)NC(=O)c1ccc(I)cc1NS(=O)(=O)c1cccc2nccnc12 [Example 137, (S)-3-(4-Chloro-3-iodo-phenyl)-2-[4-iodo-2-(quinoxaline-5-sulfonylamino)-benzoylamino]-propionic acid methyl ester] | 79.4 | 200 |
| O=C(N[C@@H](Cc1ccc(Cl)c(I)c1)C(=O)O)c1ccc(I)cc1NS(=O)(=O)c1cccc2nccnc12 [Example 138, (S)-3-(4-Chloro-3-iodo-phenyl)-2-[4-iodo-2-(quinoxaline-5-sulfonylamino)-benzoylamino]-propionic acid] | 100 | 50.1 |
| O=C(N[C@@H](Cc1ccc(Cl)c(Cl)c1)C(=O)Nc1ccccc1)c1ccc(Cl)cc1NS(=O)(=O)c1cccc2nsnc12 [Example 139, (S)-2-(Benzo[1,2,5]thiadiazole-4-sulfonylamino)-4-chloro-N-[2-(3,4-dichloro-phenyl)-phenylcarbamoyl-ethyl]-benzamide] | 79.4 | 631 |
| O=C(N[C@@H](Cc1ccc(Cl)c(Cl)c1)C(=O)N1CCCCC1)c1ccc(Cl)cc1NS(=O)(=O)c1cccc2nsnc12 [Example 140, (S)-2-(Benzo[1,2,5]thiadiazole-4-sulfonylamino)-4-chloro-N-[1-(3,4-dichloro-benzyl)-2-oxo-2-piperidin-1-yl-ethyl]-benzamide] | 126 | 316 |
